Test results from patent publication US10336762B2 (priority 2017, dated 2019).
pEC50, pIC50: −log10 of the molar value. Where two headings read alike, the source gives them in different places.

Columns and labels:
TNFα = test: cells; assay type: cell-based, human; conditions: LPS-stimulated human monocytes, read-out: EC50 TNF
IRAK4 enzyme = IRAK4 enzyme (Homo sapiens (Human), UniProt Q9NWZ3); test: biochemical; assay type: biochemical; conditions: IRAK4 enzyme, 500 μM ATP
[1] = Homo sapiens, Monocyte, TNFα by TR-FRET
[2] = Homo sapiens, Monocyte, TNFα content

Sequence of IRAK4 enzyme (Q9NWZ3 whole entry): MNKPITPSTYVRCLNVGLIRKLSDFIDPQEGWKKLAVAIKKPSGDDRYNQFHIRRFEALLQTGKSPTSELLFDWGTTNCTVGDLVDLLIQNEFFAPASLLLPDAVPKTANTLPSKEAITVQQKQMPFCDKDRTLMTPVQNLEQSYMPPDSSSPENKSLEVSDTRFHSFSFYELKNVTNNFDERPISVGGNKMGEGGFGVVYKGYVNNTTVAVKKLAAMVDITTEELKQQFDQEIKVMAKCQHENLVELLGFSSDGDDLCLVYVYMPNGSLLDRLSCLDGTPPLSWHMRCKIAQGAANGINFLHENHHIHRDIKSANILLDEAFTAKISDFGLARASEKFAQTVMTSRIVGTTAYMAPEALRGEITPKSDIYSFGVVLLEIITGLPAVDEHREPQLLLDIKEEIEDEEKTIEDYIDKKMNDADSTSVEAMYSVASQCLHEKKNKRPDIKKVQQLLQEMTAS

Structure (SMILES) | pEC50 (TNFα; [1]) | pIC50 (IRAK4 enzyme; TR-FRET) | pEC50 (TNFα; [2]) | pIC50 (IRAK4 enzyme; TR-FRET (HTRF)) | pEC50 (TNFα; TNFα content)
CC(C)(O)[C@H](F)CNC(=O)c1cnc(-c2ccc3cc(C#N)cnn23)cc1Nc1ccc2cnccc2n1 [Example 821, (R)-4-((1,6-naphthyridin-2-yl)amino)-6-(3-cyano-pyrrolo[1,2-b]pyridazin-7-yl)-N-(2-fluoro-3-hydroxy-3-methylbutyl)nicotinamide] | 7.29 | > 9.00 |  |  | 
CC(C)(O)[C@H](F)CNC(=O)c1cnc(-c2ccc3cc(C#N)cnn23)cc1NCC1CC1(F)F (stereo partly drawn) [Example 137, 6-(3-cyanopyrrolo[1,2-b]pyridazin-7-yl)-4-(((2,2-difluorocyclopropyl)methyl)amino)-N-((R)-2-fluoro-3-hydroxy-3-methylbutyl)nicotinamide] |  | 8.70 | 6.85 |  | 
N#Cc1cnn2c(-c3cc(Nc4cnc5c(c4)OCCO5)c(C(=O)N[C@H]4CC[C@H](NC(=O)N5CCOCC5)CC4)cn3)ccc2c1 [Example 861, N-((1r,4r)-4-(6-(3-cyano-pyrrolo[1,2-b]pyridazin-7-yl)-4-((2,3-dihydro-[1,4]dioxino[2,3-b]pyridin-7-yl)amino)nicotinamido)cyclohexyl)morpholine-4-carboxamide] | 7.80 | > 9.00 |  |  | 
CC(C)(O)[C@H](F)CNC(=O)c1cnc(-c2ccc3cc(C#N)cnn23)cc1N[C@H]1C[C@H](OC(=O)NC2CC2)C1 [Example 160, (1R,3r)-3-((2-(3-cyano-pyrrolo[1,2-b]pyridazin-7-yl)-5-(((R)-2-fluoro-3-hydroxy-3-methylbutyl)carbamoyl)pyridin-4-yl)amino)cyclobutyl cyclopropylcarbamate] |  | 6.33 | < 5.00 |  | 
COC(C)(C)CCNC(=O)c1cnc(-c2ccc3cc(C#N)cnn23)cc1NC(C)C [Example 87, 6-(3-cyanopyrrolo[1,2-b]pyridazin-7-yl)-4-(isopropylamino)-N-(3-methoxy-3-methylbutyl)nicotinamide] |  | 9.00 | 6.80 |  | 
N#Cc1cnn2c(-c3cc(NC45CCC(O)(CC4)CC5)c(C(=O)NCC(=O)N4CCCC4)cn3)ccc2c1 [Example 790, 6-(3-cyanopyrrolo[1,2-b]pyridazin-7-yl)-4-((4-hydroxybicyclo[2.2.2]octan-1-yl)amino)-N-(2-oxo-2-(pyrrolidin-1-yl)ethyl)nicotinamide] |  |  | 7.68 | > 9.00 | 
CC(C)Nc1cc(-c2ccc3cc(C#N)cnn23)ncc1C(=O)NC1CC2(COC2)C1 [Example 96, 6-(3-cyanopyrrolo[1,2-b]pyridazin-7-yl)-4-(isopropyl-amino)-N-(2-oxaspiro[3.3]heptan-6-yl) nicotinamide] |  | 8.70 | 7.10 |  | 
CN1CCC[C@H](Nc2cc(-c3ccc4cc(C#N)cnn34)ncc2C(=O)NC[C@@H](F)C(C)(C)O)C1 [Example 260, 6-(3-cyanopyrrolo[1,2-b]pyridazin-7-yl)-N-((R)-2-fluoro-3-hydroxy-3-methylbutyl)-4-(((S)-1-methylpiperidin-3-yl)amino)nicotinamide] |  | 8.10 | 6.78 |  | 
CNC(=O)c1ccc(Nc2cc(-c3ccc4cc(C#N)cnn34)ncc2C(=O)NCC#N)cc1 [Example 451, N-(cyanomethyl)-6-(3-cyanopyrrolo[1,2-b]pyridazin-7-yl)-4-((4-(methylcarbamoyl)phenyl)amino) nicotinamide] |  |  | 7.52 | > 9.00 | 
CC(C)(O)[C@H](F)CNC(=O)c1cnc(-c2ccc3cc(C#N)cnn23)cc1N[C@H]1C[C@H]2CNC[C@H]2C1 [Example 248, 6-(3-cyanopyrrolo[1,2-b]pyridazin-7-yl)-N-((R)-2-fluoro-3-hydroxy-3-methyl-butyl)-4-(((3aR,5r,6aS)-octahydrocyclopenta[c]pyrrol-5-yl)amino) nicotinamide] |  | 8.52 | 6.26 |  | 
[2H]C([2H])([2H])OC(=O)NC12CCC(Nc3cc(-c4ccc5cc(C#N)cnn45)ncc3C(=O)NC[C@@H](F)C(C)(C)O)(CC1)CC2 [Example 283, methyl-d3 (R)-(4-((2-(3-cyanopyrrolo[1,2-b]pyridazin-7-yl)-5-((2-fluoro-3-hydroxy-3-methylbutyl)carbamoyl)pyridin-4-yl)amino)bicyclo[2.2.2]octan-1-yl)carbamate] |  | 9.00 | 7.85 |  | 
COC(=O)N1CC2(CC(Nc3cc(-c4ccc5cc(C#N)cnn45)ncc3C(=O)NC[C@@H](F)C(C)(C)O)C2)C1 [Example 897, (R)-methyl 6-((2-(3-cyano-pyrrolo[1,2-b]pyridazin-7-yl)-5-((2-fluoro-3-hydroxy-3-methylbutyl)carbamoyl)pyridin-4-yl)amino)-2-azaspiro[3.3]heptane-2-carboxylate] | 6.38 | 8.70 |  |  | 
COCc1nnc(NC[C@H]2C[C@H](Nc3cc(-c4ccc5cc(C#N)cnn45)ncc3C(=O)NC[C@@H](F)C(C)(C)O)C2)o1 [Example 697, 6-(3-cyanopyrrolo[1,2-b]pyridazin-7-yl)-N-((R)-2-fluoro-3-hydroxy-3-methylbutyl)-4-(((1r,3R)-3-(((5-(methoxymethyl)-1,3,4-oxadiazol-2-yl)amino)methyl)cyclobutyl)amino) nicotinamide] |  |  | 6.77 | 9.00 | 
CNC(=O)C12CCC(Nc3cc(-c4ccc5cc(C#N)cnn45)ncc3C(=O)NC[C@@H](F)C(C)(C)O)(CC1)CC2 [Example 416, 6-(3-cyanopyrrolo[1,2-b]pyridazin-7-yl)-N-((R)-2-fluoro-3-hydroxy-3-methylbutyl)-4-((4-(methylcarbamoyl)bicyclo[2.2.2]octan-1-yl)amino)nicotinamide] |  |  | 7.80 | 9.00 | 
CC(C)(O)[C@H](F)CNC(=O)c1cnc(-c2ccc3cc(C#N)cnn23)cc1N[C@H]1C[C@@H](CO)C1 [Example 730] |  |  | 7.40 | > 9.00 | 
CC(C)(O)[C@H](F)CNC(=O)c1cnc(-c2ccc3cc(C#N)cnn23)cc1Nc1cnn([C@@H]2CCOC2)c1 [Example 239, 6-(3-cyanopyrrolo[1,2-b]pyridazin-7-yl)-N-((R)-2-fluoro-3-hydroxy-3-methylbutyl)-4-((1-((R)-tetrahydrofuran-3-yl)-1H-pyrazol-4-yl)amino) nicotinamide] |  | > 9.00 | 7.62 |  | 
CC(C)(O)[C@H](F)CNC(=O)c1cnc(-c2ccc3cc(C#N)cnn23)cc1NC[C@H]1CCNC1 [Example 899, 6-(3-cyanopyrrolo[1,2-b]pyridazin-7-yl)-N-((R)-2-fluoro-3-hydroxy-3-methylbutyl)-4-((((S)-pyrrolidin-3-yl)methyl)amino)nicotinamide] | < 5.00 | 8.30 |  |  | 
CC(C)(O)[C@H](F)CNC(=O)c1cnc(-c2ccc3cc(C#N)cnn23)cc1NC1CC2CCC(C1)N2 (stereo partly drawn) [Example 24, 4-(((1R,3s,5S)-8-azabicyclo[3.2.1]octan-3-yl)amino)-6-(3-cyanopyrrolo[1,2-b]pyridazin-7-yl)-N-((R)-2-fluoro-3-hydroxy-3-methylbutyl)nicotinamide] |  | 8.70 |  |  | 6.19
CC(C)(O)[C@H](F)CNC(=O)c1cnc(-c2ccc3cc(C#N)cnn23)cc1Nc1ccc(C2(N3CCOC3=O)CC2)cc1 [Example 876, (R)-6-(3-cyanopyrrolo[1,2-b]pyridazin-7-yl)-N-(2-fluoro-3-hydroxy-3-methylbutyl)-4-((4-(1-(2-oxooxazolidin-3-yl)cyclo-propyl)phenyl)amino) nicotinamide] | 7.62 | > 9.00 |  |  | 
